Where “and” joins values, the source holds several entries; their conditions need not be identical. Equal values may be shown once. Read-outs that look alike come from different tables or passages of the source.
Experiments:
SCD1 [1] = molecular target: T1, SCD1 (Homo sapiens (Human), UniProt O00767); test: SCD1 14C-palmitate assay in A431 cells; type: cell-based; settings: read-out: A431 cells 14C-PA IC50
Protocol: Human epithelial carcinoma A431 cells were seeded at 400,000 cells per well in 48-well tissue culture plate and treated with 2 cycles of fasting in low glucose medium (DMEM, Cellgro#10-014-CV, 1 g/L glucose, 2% Charcoal Filtered FBS) for 24 hours; and re-feeding with high glucose medium for 24 hours (DMEM, Cellgro#10-013-CM, 4.5 g/L glucose, 10% Charcoal Filtered FBS and 0.05 mg/mL Lilly Humulin R, Cat.#, HI-210). Prior to running the assay, the cells were washed twice with high glucose medium (400 μL), followed by addition of 250 μL assay buffer (DMEM, 4.5 g/L glucose, 0.05 mg/mL Human Insulin, 0.1% Fatty Acid Free BSA) to each well. Then, 100 μL of assay buffer containing 20 μM Palmitic Acid, 0.05 μCi ^14C Palmitic Acid (Perkin Elmer, NEC075H) and test compound (at selected concentration) was added to each well. The cells were then Incubated at 37° C. and 5% CO2 tissue culture incubator for 4 hours, followed by extensive washes with pre-chilled PBS. The cell plates were then frozen at −20° C. overnight. After thawing out the plates, 100 μL of 1N KOH was added to each well and the plates were incubated at 37° C. for 30 mins. Cell lysates were transferred to 1 mL Eppendorf tubes and incubated at 95° C. for 1 hour, followed by addition of 10 μL formic acid and 220 μL acetonitrile. The tubes were then centrifuged at 12,000 rpm and the supernatant dried under N2 for 2-3 hours. Dried extract was re-suspended in 60 μL hexane and loaded onto TLC plates (pre-coated with 10% AgNO3 in acetonitrile). The TLC plates were placed into glass running chamber containing 200 mL running solution (100 mL running solution: 92.5 mL chloroform, 6 mL methanol, 750 μL acetic acid, 750 μL dH2O). After running, the TLC plates were air dried and scanned on Bioscan AR-2000 for quantification of ^14C-palmitioleate and ^14C-palmitate peaks. Area under the curve of the peaks were used to calculate product/substrate ratio, an index of SCD1 activity.

SCD1 [2] = molecular target: SCD1 (Rattus norvegicus (Rat), UniProt P07308); test: SCD1 enzymatic assay in rat liver microsomes (RLM); type: biochemical; settings: for inhibition at 1 µM: read-out: % Inh.@ 1 μM
Summary of the method: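 Microsomes from livers of Sprague Dawley rats after fast/fat-free re-feeding cycles (10 μg per reaction) were incubated 2 h at room temperature with 20 μM stearoyl-CoA plus ^3H-stearoyl-CoA (2 μCi/mL), ATP, CoA, NADH and glutathione in 0.1 M K-phosphate, with compound. Reactions were acid-stopped and charcoal-treated; radioactivity was counted and fitted to a sigmoidal dose-response curve.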

SCD1 [3] = molecular target: T1, SCD1; test: SCD1 13C-palmitic acid assay in A431 cells; type: cell-based; settings: read-out: A431 cells 13C-PA IC50
Summary of the method: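 A431 cells with 0.05 mg/mL human insulin in 0.1% fatty-acid-free BSA assay medium; 4 h incubation at 37 °C before KOH saponification with D4-palmitate internal standard.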

[4] = 10-day diet-induced obese C57bl/6 mice study, body weight change; type: in vivo, mouse; parameters: unit not given here; settings: DIO C57BL/6J mice, oral 30 mg/kg once a day, after 10 days of treatment
Protocol: Male DIO C57BL/6J mice from Taconic were maintained on high fat diet D12492 containing 60% kCal of mostly saturated fats (Research Diets Inc.) for 4 week from 6-week old. Test compounds were prepared in 0.5% hydroxypropyl methyl cellulose for oral dosing at 30 mg/kg once a day. After 10-days of treatment, body weight change was recorded.
Representative compounds of the present invention were tested according to the procedure as described above, with results as listed in Table 7, below. In the results presented below, * indicates a calculated p value <0.05 vs. vehicle-treated group.

[5] = 1 μM test compound, rat liver microsomes

T1 sequence (O00767 whole entry): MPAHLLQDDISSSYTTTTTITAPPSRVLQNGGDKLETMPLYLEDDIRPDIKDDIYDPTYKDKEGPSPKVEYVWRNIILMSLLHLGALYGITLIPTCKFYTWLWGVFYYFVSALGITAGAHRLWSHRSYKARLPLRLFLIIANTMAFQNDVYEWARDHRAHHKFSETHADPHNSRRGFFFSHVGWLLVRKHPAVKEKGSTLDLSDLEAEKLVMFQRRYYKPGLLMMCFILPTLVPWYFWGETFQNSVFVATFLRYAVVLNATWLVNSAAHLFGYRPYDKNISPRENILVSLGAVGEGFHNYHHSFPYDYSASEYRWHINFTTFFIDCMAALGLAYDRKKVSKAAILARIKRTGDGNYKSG
Sequence of SCD1 (Rattus norvegicus (Rat), UniProt P07308) (P07308 whole entry): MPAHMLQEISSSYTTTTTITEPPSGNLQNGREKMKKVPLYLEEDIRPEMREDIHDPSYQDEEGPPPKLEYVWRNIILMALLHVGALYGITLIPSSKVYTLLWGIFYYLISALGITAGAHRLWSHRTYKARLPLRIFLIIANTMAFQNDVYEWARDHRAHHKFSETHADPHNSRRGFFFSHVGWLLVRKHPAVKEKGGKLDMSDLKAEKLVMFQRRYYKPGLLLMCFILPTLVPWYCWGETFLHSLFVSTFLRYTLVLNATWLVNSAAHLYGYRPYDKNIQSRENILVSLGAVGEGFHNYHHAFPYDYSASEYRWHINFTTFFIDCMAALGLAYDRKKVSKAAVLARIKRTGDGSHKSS

| SMILES | IC50 (SCD1 [1]) | inhibition at 1 µM (SCD1 [2]; [5]) | IC50 (SCD1 [2]; rat liver microsomes) | % Inh.@ 1 μM (SCD1 [2]; [5]) | IC50 (SCD1 [3]) | body weight change [4] | inhibition at 1 µM (SCD1 [2]) |
| --- | --- | --- | --- | --- | --- | --- | --- |
| Cc1cn(-c2ccc(N3CCC(N4CCc5ccccc54)CC3)nn2)cn1 [Compound #1, 1-(1-(6-(4-methyl-1H-imidazol-1-yl)pyridazin-3-yl)piperidin-4-yl)indoline] | 257 nM | 86% | 76 nM |  |  |  |  |
| Cn1cc(-c2ccc(N3CCC(c4noc5ccc(F)cc45)CC3)nn2)cn1 [Compound #3, 5-fluoro-3-(1-(6-(1-methyl-1 H-pyrazol-4-yl)pyridazin-3-yl)piperidin-4-yl)benzo[d]isoxazole] | 377 nM | 87% | 126 nM |  |  |  |  |
| Cc1cn(-c2ccc(N3CCC(N4CCc5ccc(F)cc54)CC3)nn2)cn1 [Compound #4, 6-fluoro-1-(1-(6-(4-methyl-1H-imidazol-1-yl)pyridazin-3-yl)piperidin-4-yl)indoline] | 68 nM | 95% |  | 93% | 9 nM |  |  |
| Cc1nsc(-c2ccc(N3CCC(c4noc5ccc(F)cc45)CC3)nn2)n1 [Compound #5, 5-fluoro-3-(1-(6-(3-methyl-1,2,4-thiadiazol-5-yl)pyridazin-3-yl)piperidin-4-yl)benzo[d]isoxazole] | 139 nM | 89% | 68 nM |  |  |  |  |
| Cc1nsc(-c2ccc(N3CCC(n4ccc5ccccc54)CC3)nn2)n1 [Compound #6, 5-(6-(4-(1H-indol-1-yl)piperidin-1-yl)pyridazin-3-yl)-3-methyl-1,2,4-thiadiazole] | 62 nM and 102 nM | 79% | 34 nM |  |  |  |  |
| Cc1nsc(-c2ccc(N3CCC(N4CCc5ccccc54)CC3)nn2)n1 [Compound #7, 5-(6-(4-(indolin-1-yl)piperidin-1-yl)pyridazin-3-yl)-3-methyl-1,2,4-thiadiazole] | 24 nM | 95% | 14 nM |  |  |  |  |
| Cn1cc(-c2ccc(N3CCC(n4ccc5ccccc54)CC3)nn2)cn1 [Compound #9, 1-(1-(6-(1-methyl-1H-pyrazol-4-yl)pyridazin-3-yl)piperidin-4-yl)-1H-indole] | 359 nM | 81% | 422 nM |  |  |  |  |
| Cn1cc(-c2ccc(N3CCC(N4CCc5ccccc54)CC3)nn2)cn1 [Compound #10, 1-(1-(6-(1-methyl-1H-pyrazol-4-yl)pyridazin-3-yl)piperidin-4-yl)indoline] | 383 nM | 84% | 394 nM |  |  |  |  |
| Cc1nsc(-c2ccc(N3CCC(N4CCc5ccc(F)cc54)CC3)nn2)n1 [Compound #12, 5-(6-(4-(6-fluoroindolin-1-yl)piperidin-1-yl)pyridazin-3-yl)-3-methyl-1,2,4-thiadiazole] | 362 nM | 95% | 11 nM | 97% |  |  |  |
| OCc1cnn(-c2ccc(N3CCC(N4CCc5ccc(F)cc54)CC3)nn2)c1 [Compound #22] |  |  | 22 nM and 11 nM |  | 7 nM and 5 nM | 1.2 ± 0.3 * | 98% |
| OCc1ccc(-c2ccc(N3CCC(N4CCc5ccc(F)cc54)CC3)nn2)cn1 [Compound #39] |  | 99% | 9 nM |  | 0.5 nM | −2.2 ± 0.5 * |  |
| Cn1cc(-c2ccc(N3CCC(n4ncc5ccc(F)cc54)CC3)nn2)cn1 [Compound #47, 6-fluoro-1-(1-(6-(1-methyl-1H-pyrazol-4-yl)pyridazin-3-yl)piperidin-4-yl)-1H-indazole] |  |  |  |  | 69 nM and 33 nM | −3.3 ± 0.5 * |  |
| OCCn1cc(-c2ccc(N3CCC(N4CCc5ccc(F)cc54)CC3)nn2)cn1 [Compound #49, 2-(4-(6-(4-(6-fluoroindolin-1-yl)piperidin-1-yl)pyridazin-3-yl)-1H-pyrazol-1-yl)ethanol] |  | 95% | 25 nM and 19 nM | 91% | 21 nM and 22 nM | 0.5 ± 0.1 * |  |
| NNC(=O)c1ccc(N2CCC(c3noc4ccc(F)cc34)CC2)nn1 [Compound I1, 6-(4-(5-fluorobenzo[d]isoxazol-3-yl)piperidin-1-yl)pyridazine-3-carbohydrazide] | 3060 nM | 100% | 59 nM |  | > 3000 nM |  |  |
| Fc1ccc2onc(C3CCN(c4ccc(-c5cccnc5)nn4)CC3)c2c1 [compound 8, 5-fluoro-3-(1-(6-(pyridin-3-yl)pyridazin-3-yl)piperidin-4-yl)benzo[d]isoxazote] | 577 nM | 86% | 165 nM |  |  |  |  |
| Fc1ccc2onc(C3CCN(c4ccc(-n5ccnc5)nn4)CC3)c2c1 [compound 84, 3-(1-(6-(1H-imidazol-1-yl)pyridazin-3-yl)piperidin-4-yl)-5-fluorobenzo[d]isoxazole] | 157 nM | 85% | 156 nM |  |  |  |  |
| Cc1cn(-c2ccc(N3CCC(c4noc5ccc(F)cc45)CC3)nn2)cn1 [compound 85, 5-fluoro-3-(1-(6-(4-methyl-1H-imidazol-1-yl)pyridazin-3-yl)piperidin-4-yl)benzo[d]isoxazole] | 148 nM | 97% | 65 nM |  |  |  |  |
| Cc1cn(-c2ccc(N3CCC(n4ccc5ccccc54)CC3)nn2)cn1 [compound 88, 1-(1-(6-(4-methyl-1H-imidazol-1-yl)pyridazin-3-yl)piperidin-4-yl)-1H-indole] | 116 nM | 84% | 86 nM |  |  |  |  |
| Cc1cn(-c2ccc(N3CCC(c4noc5cc(F)ccc45)CC3)nn2)cn1 [compound 89, 6-fluoro-3-(1-(6-(4-methyl-1H-imidazol-1-yl)pyridazin-3-yl)piperidin-4-yl)benzo[d]isoxazole] | 691 nM | 88% | 257 nM |  |  |  |  |
| Cc1ccn(-c2ccc(N3CCC(c4noc5ccc(F)cc45)CC3)nn2)n1 [compound 92, 5-fluoro-3-(1-(6-(3-methyl-1H-pyrazol-1-yl)pyridazin-3-yl)piperidin-4-yl)benzo[d]isoxazole] | 63 nM | 79% | 126 nM |  |  |  |  |
| OCCc1cnn(-c2ccc(N3CCC(c4noc5ccc(F)cc45)CC3)nn2)c1 [compound 98, 2-(1-(6-(4-(5-fluorobenzo[d]isoxazol-3-yl)piperidin-1-yl)pyridazin-3-yl)-1H-pyrazol-4-yl)ethanol] |  | 88% | 60 nM |  | 12 nM |  |  |

From patent US9102669B2, “Substituted piperidinyl-pyridazinyl derivatives useful as SCD 1 inhibitors” (Janssen Pharmaceutica NV, priority 2011, dated 2015)
